Measured values: publication PMC8498988, “Scaffold Hybridization Strategy Leads to the Discovery of Dopamine D3 Receptor-Selective or Multitarget Bitopic Ligands Potentially Useful for Central Nervous System Disorders” (ACS Chemical Neuroscience, 2021)

Tests used:
human D1R = biological target: T1, human D1R (Homo sapiens, UniProt P21728); assay: Radioligand binding assay at human D1R ([3H]SCH23390, mouse fibroblast LhD1 cells); conditions: [3H]SCH23390, mouse fibroblast cells expressing hD1R; read-out: Ki ± SEM, D1R
T1 construct: expressed in transfected cells; host or cells: mouse fibroblast cells (LhD1)
T1 sequence (P21728 whole entry): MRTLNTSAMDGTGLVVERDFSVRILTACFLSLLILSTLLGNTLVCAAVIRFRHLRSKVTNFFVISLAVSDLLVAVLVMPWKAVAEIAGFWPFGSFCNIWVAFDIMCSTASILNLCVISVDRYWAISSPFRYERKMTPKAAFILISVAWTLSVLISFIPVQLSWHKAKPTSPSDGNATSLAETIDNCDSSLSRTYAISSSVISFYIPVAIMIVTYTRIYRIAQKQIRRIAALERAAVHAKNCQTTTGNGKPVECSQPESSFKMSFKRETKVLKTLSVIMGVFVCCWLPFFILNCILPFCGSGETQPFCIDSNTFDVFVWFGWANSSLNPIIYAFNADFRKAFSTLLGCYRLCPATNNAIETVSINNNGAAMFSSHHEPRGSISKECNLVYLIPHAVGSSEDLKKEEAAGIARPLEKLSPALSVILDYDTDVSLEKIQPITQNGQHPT
Method: Mouse fibroblast cells expressing the human D1R at high density (LhD1 cells) are used. The cells are grown to confluence in DMEM containing 10% FetalClone1 serum (FCS, HyClone), 0.05% penicillin–streptomycin (pen-strep), and 400 μg/mL of Geneticin (G418). Three confluent 150 mm plates yield enough membranes for three assay plates with ∼10–15 μg protein per well. The cells from three 150 mm plates are scraped and centrifuged at 500×g for 5 min. The pellet is overlaid with 2 mL assay buffer (50 mM Tris–HCl containing 120 mM NaCl, 5 mM KCl, 2 mM CaCl2, and 1 mM MgCl2) and frozen at −70 °C. On the day of experiment, the pellet is homogenized in 30 mL assay buffer with a polytron. Cell homogenate (100 μL) is added to wells containing 800 μL of test drug or buffer. After a 10 min preincubation, 100 μL of [^3H]SCH-23390 (0.18 nM final concentration) is added. The plates are incubated at 25 C for 60 min. The reaction is terminated by filtration using a Tomtec 96 well harvester, and the radioactivity on the filters is determined using a PerkinElmer microbeta scintillation counter. Nonspecific binding is determined with 1 μM SCH-23390.

human 5-HT1AR [1] = biological target: T2, human 5-HT1AR (Homo sapiens, UniProt P08908); assay: Radioligand binding assay at human 5-HT1AR ([3H]8-OH-DPAT, HeLa cells); conditions: HeLa cells expressing h5-HT1AR, read-out: Ki ± SEM, 5-HT1AR
T2 construct: expressed in transfected cells; host or cells: HeLa
T2 sequence (P08908 1-422): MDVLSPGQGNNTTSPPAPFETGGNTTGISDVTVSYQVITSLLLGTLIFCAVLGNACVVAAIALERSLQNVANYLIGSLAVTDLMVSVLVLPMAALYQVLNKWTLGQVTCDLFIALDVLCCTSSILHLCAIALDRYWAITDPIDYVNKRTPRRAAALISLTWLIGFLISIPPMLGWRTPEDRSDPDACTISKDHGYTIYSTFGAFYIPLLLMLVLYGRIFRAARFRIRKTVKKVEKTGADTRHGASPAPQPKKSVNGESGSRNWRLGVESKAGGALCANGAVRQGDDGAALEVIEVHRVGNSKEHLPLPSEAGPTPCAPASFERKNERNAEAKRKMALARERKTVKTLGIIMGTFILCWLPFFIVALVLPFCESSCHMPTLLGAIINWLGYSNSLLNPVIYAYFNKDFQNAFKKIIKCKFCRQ
Method: A human cell line (HeLa) stably transfected with genomic clone G-21 coding for the human 5-HT1AR was used. Cells were grown as monolayers in Dulbecco’s modified Eagle’s medium supplemented with 10% fetal calf serum and gentamycin (100 μg/mL) under 5% CO2 at 37 °C. Cells were detached from the growth flask at 95% confluency by a cell scraper and were lysed in ice-cold Tris (5 mM) and EDTA buffer (5 mM, pH 7.4). Homogenates were centrifuged for 20 min at 40000g, and pellets were resuspended in a small volume of ice-cold Tris/EDTA buffer (above) and immediately frozen and stored at -70 °C until use. On the day of experiment, cell membranes (80–90 μg of protein) were resuspended in binding buffer (50 mM Tris, 2.5 mM MgCl2, and 10 mM pargyline, pH 7.4). Membranes were incubated in a final volume of 0.32 mL for 30 min at 30 °C with 1 nM [^3H]8-OH-DPAT in the absence or presence of various concentrations of competing drugs (1 pM to 1 μM); each experimental condition was performed in triplicate. Nonspecific binding was determined in the presence of 10 μM 5-HT.

human 5-HT1AR [2] = biological target: T2, human 5-HT1AR; assay: 5-HT1A [35S]GTPγS binding assay (HeLa cell membranes); format: biochemical; conditions: for EC50 / % stimul., 5-HT1A [35S]GTPγS binding: agonist mode; for % stimul., 5-HT1A [35S]GTPγS binding: standard agonist serotonin; for functional behavior at 5-HT1AR: in words
Method: The effects of the various compounds tested on [^35S]GTPγS binding in HeLa cells expressing the recombinant human 5-HT1AR were evaluated according to the method of Stanton and Beer with minor modifications. The stimulation experiments are as follows: Cell membranes (50–70 μg of protein) were resuspended in buffer containing 20 mM HEPES, 3 mM MgSO4, and 120 mM NaCl (pH 7.4). […] The samples were transferred to ice, [^35S]GTPγS (200 pM) was added, and the samples were incubated for further 30 min at 30 °C. The preincubation with both agonist and antagonist, before initiating the [^35S]GTPγS binding, ensures that agonist and antagonist are at equilibrium. Nonspecific binding was determined in the presence of […]. Incubation was stopped by the addition of ice-cold HEPES buffer and rapid filtration on Unifilter B filters (PerkinElmer) using a Filtermate cell harvester (Packard). The filters were washed with ice-cold Hepes buffer, and the radioactivity retained on the filters was determined by a TopCount, PerkinElmer liquid scintillation counter at 90% efficiency.

5-HT2AR = 5-HT2AR (Homo sapiens, UniProt P28223); assay: Radioligand binding assay at human 5-HT2AR ([125I]DOI, HEK cells); design: expressed in transfected cells; host or cells: HEK (HEK-h5HT2A); conditions: HEK cells expressing h5-HT2AR, read-out: Ki ± SEM, 5-HT2AR
5-HT2AR, sequence (P28223 whole entry): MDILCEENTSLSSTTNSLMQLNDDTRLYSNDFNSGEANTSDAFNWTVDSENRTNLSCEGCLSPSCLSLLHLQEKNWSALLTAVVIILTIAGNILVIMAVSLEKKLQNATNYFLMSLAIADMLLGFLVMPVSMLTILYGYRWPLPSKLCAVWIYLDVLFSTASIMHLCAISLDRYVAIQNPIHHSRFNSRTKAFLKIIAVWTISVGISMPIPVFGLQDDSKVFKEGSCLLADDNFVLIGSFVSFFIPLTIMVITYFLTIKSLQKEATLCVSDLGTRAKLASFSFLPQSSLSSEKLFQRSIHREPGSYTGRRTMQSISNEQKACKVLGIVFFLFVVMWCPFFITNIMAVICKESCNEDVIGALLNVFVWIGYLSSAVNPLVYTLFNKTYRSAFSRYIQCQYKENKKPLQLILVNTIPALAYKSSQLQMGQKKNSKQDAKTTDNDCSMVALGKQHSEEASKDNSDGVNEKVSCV
Method: Human embryonic kidney cells expressing human 5HT2AR (HEK-h5HT2A) or human 5HT2CR (HEK-h5HT2C) are used. The cells are grown until confluent on 15 cm plates. The medium is removed, and the cells are washed with phosphate-buffered saline (PBS), scraped into 2 mL PBS, and frozen at −20 °C until needed. Cell suspension is thawed, 10 mL assay buffer (50 mM Tris, pH 7.4 at 37 °C, with 0.1% ascorbic acid and 5 mM CaCl2) is added per plate of cells, and polytronned at setting 6 for 5 s. The homogenate is centrifuged at 15,500 rpm for 20 min. To minimize the residual 5HT concentration, the pellet is resuspended in buffer, polytronned, and centrifuged as mentioned above. The final pellet is resuspended in 2 mL buffer/plate of cells. The binding assay includes 50 μL drug, 5-HT or buffer, 50 μL cell homogenate, 50 μL [^125I]DOI (∼0.1 nM), and buffer in a final volume of 250 μL. Specific binding is defined as the difference between total binding and binding in the presence of 10 μM 5HT. The reaction is incubated for 1 h at 37 °C and terminated by filtration through Wallac A filter mats presoaked in 0.05% polyethylenimine using a Tomtec 96-well harvester. The radioactivity remaining on filters is determined using a Wallac betaplate reader.

Row | SMILES | Ki (human D1R) [µM] | Ki (human 5-HT1AR [1]) [µM] | EC50 (human 5-HT1AR [2]) [µM] | % stimul., 5-HT1A [35S]GTPγS binding (human 5-HT1AR [2]) [%] | functional behavior at 5-HT1AR (human 5-HT1AR [2]) | Ki (5-HT2AR) [µM]
1 | O=C(NCCCCN1CCN(c2cccc(Cl)c2Cl)CC1)C1COC(c2ccccc2)(c2ccccc2)CO1 (stereo not drawn) [compound 6, N-(4-(4-(2,3-Dichlorophenyl)piperazin-1-yl)butyl)-5,5-diphenyl-1,4-dioxane-2-carboxamide] | 0.7 ± 0.15 | 0.0091 ± 0.00097 | 0.0239 ± 0.0088 | 90.8 | efficacious 5-HT1AR and D4R agonists with high potency | 0.028 ± 0.006
2 | O=C(NCCCCN1CCN(c2cccc(Cl)c2Cl)CC1)C1COc2ccccc2O1 (stereo not drawn) [compound 9, N-(4-(4-(2,3-Dichlorophenyl)piperazin-1-yl)butyl)-2,3-dihydrobenzo[b][1,4]dioxine-2-carboxamide] | 0.68 ± 0.16 | 0.0238 ± 0.0052 | 0.0227 ± 0.00082 | 96.3 | efficacious 5-HT1AR and D4R agonists with high potency | 0.062 ± 0.015
3 | O=C(NCCCCN1CCN(c2cccc(Cl)c2Cl)CC1)C1COCC(c2ccccc2)(c2ccccc2)O1 (stereo not drawn) [compound 3, N-(4-(4-(2,3-Dichlorophenyl)piperazin-1-yl)butyl)-6,6-diphenyl-1,4-dioxane-2-carboxamide] | 0.442 ± 0.052 | 0.288 ± 0.015 | 0.232 ± 0.019 | 82.7 | 5-HT1AR full agonist | 0.257 ± 0.038
